The values below come from patent US20090214426A1, “Assay Method” (priority 2004, published 2009).

The test system of assay [1] is CCI rats. The assay can be described thus: Beam walking test in CCI rats. The class given is in vivo, rat. To be noted: for efficacy on reversing beam walking impairments: summary statement, dose not stated. As to the method: (§1) The CCI of sciatic nerve is performed as previously described by Bennett and Xie (1988). Animals are anaesthetized with a 2% isofluorane/O2 mixture maintained during surgery via a nose cone and the common sciatic nerve is exposed at the middle of the right thigh by blunt dissection through biceps femoris. Proximal to the sciatic trifurcation, about 7 mm of nerve is freed of adhering tissue and 4 ligatures (4-0 silk) are tied loosely around it with about 1 mm spacing. Ligatures are tied such that the circulation through the superficial epineural vasculature is retarded but not arrested. The incision is then closed in layers and the wound treated with topical antibiotics. In the sham-operated group an identical dissection is performed on the ipsilateral paw except the sciatic nerve is not ligated.
The Beam walking apparatus consists of a 1.5 m long beam with a 2.5×2.5 cm square cross section, elevated 75 cm above the floor. The test is performed in dim light conditions (18 lux). A light source (520 lux) is placed at the start-end of the beam while a dark box at the other side (Goldstein & Davis, 1990, J Neurosci Methods; 31:101-107). Rats are trained over a period of 2 days to cross the beam. On the day of the test an additional training section is performed before the proper test trial was performed. […] Rats that cross the beam without using the ipsilateral paw are given a maximal number of foot slips.
Starting from 3 weeks post surgery, CCI rats are selected based on their performances. Only those showing a number of foot slips of 2 or above are selected and used for the pharmacological validation of the test. A group of naïve CD rats are treated with vehicle and used as positive controls. […]

In assay [2] the test system is CCI rats. Nature of the assay: Open field test in CCI rats. To be noted: for reversal of pain-related anxiety-like behaviour of CCI rats: summary statement, dose not stated. The class given is in vivo, rat. Here is the method:
as §1
(§2) The spontaneous locomotor activity of rats in an open field is monitored for 30 minutes in a 70×70 cm dark arena (Prut ans Beizung, 2003, Eur J Pharmacol. 463:3-33). Each animal was placed in the centre of the arena and a video camera recorded movement of the animal. Four rats are recorded simultaneously in four different cages. Data are collected and analysed by Ethovision 3.0 software (Noldus IT, Netherdland) and the exploratory behaviour is expressed as number of entries in the central area of the arena (23×23 cm).
To measure the anxiety-like behaviour in CCI rats the open field test is carried out in normal light conditions (100 Lux).
For a pharmacological validation of the model, CCI rats with a poor exploratory activity (entries≦6) are pre selected in the open field and a week later treated with diazepam (1 and 3 mg/kg, i.p.), tramadol (30 mpk, p.o.) or gabapentin (30-100 mg/kg, p.o.). Naïve CD vehicle-treated rats are used as positive control.

Assay [3] relates to CCI rats. The assay can be described thus: Rota rod test in CCI rats. It is filed as in vivo, rat. To be noted: analgesic doses; selected rats with mean performance <80 seconds; data not shown. As to the method:
as §1
The rota rod test consists of 4 rotatable drums divided by flanges with a motor-driven drum which is capable of acceleration (Ugo Basile, Comerio, VA, Italy). For a given trial, a rat is placed on the rotating rod and the rotation speed is accelerated from 4 to 16 revolutions per minute (rpm) in 2 minutes. The time of maximal performance is set at 120 seconds (Voikar V et al, 2001, Physiol Behav., 2001; 72:271-81). […]
A general note: The rotarod test checks motor coordination on a turning rod.

Another assay deals with fibromyalgia patients. To be noted: randomised controlled clinical trials (Mease 2003); cited from earlier work.
Assay [4] relates to CCI rats. The assay can be described thus: Object recognition test in CCI rats. To be noted: tramadol 100 mg/kg po, 3.5 hours post familiarization, tested 30 minutes later. It is filed as in vivo, rat. As to the method: as §1
The Object Recognition test was performed as described by Ennaceur and Delacour (1988). The apparatus consisted of a black circular arena 55 cm in diameter with 50 cm black walls. […]
Each animal was trained prior to testing; this involved handling and habituation of the rat to the arena for 5 minutes per session, twice a day for three consecutive days. […] The distance moved in the arena and the time spent exploring each object during familiarization and sample phases were recorded manually and automatically, respectively by the videotracking system (Noldus Ethovision 3.0, Netherland). […]

Assay [5] deals with patients with diabetic neuropathy and post herpetic neuralgia. To be noted: randomised controlled clinical trials (Backonja 1998; Rowbotham 1998); cited from earlier work.
The test system of a further assay is CD naïve rat. Nature of the assay: Open field test in naïve rats (anxiogenic validation). It is filed as in vivo. Here is the method: as §2
To measure the anxiety-like behaviour in CCI rats the open field test is carried out in normal light conditions (100 Lux). […] To confirm that the environmental conditions we set up, could let us measure an anxiety-like behaviour, the activity of the anxiogenic compound mCPP was tested in CD naïve rat.

“Also recorded” adds a separate entry of the source.

For `CN(C)CCC=C1c2ccccc2CCc2ccccc21` [Amitriptyline], the “neuropathic rats performance in the beam walking task” value in the assay on CCI rats [1] (amitriptyline 2 mg/kg (FIG. 2C)) and in the assay on CCI rats [1] (amitriptyline 20 mg/kg (data not shown)) was “did not improve” in each case. In addition, the “efficacy on reversing beam walking impairments” value (“efficacy” below) in the assay on CCI rats [1] is “does not”.
Turning to `CN1C(=O)CN=C(c2ccccc2)c2cc(Cl)ccc21` [Diazepam], the “pain-related anxiety-like behaviour of CCI rats (entries in centre)” value in the assay on CCI rats [2] (diazepam 1 mg/kg IP, 30 minutes before the test (FIG. 5A)) was “did not”; in the assay on CCI rats [2] (diazepam 3 mg/kg (higher dose, data not shown)), “did not”. Besides, the “reversal of pain-related anxiety-like behaviour of CCI rats” value (“reversal” below) in the assay on CCI rats [2] is “does not reverse”.
As to `CN1CC[C@]23c4c5ccc(O)c4O[C@H]2[C@@H](O)C=C[C@H]3[C@H]1C5` [Morphine], in the assay with CCI rats [1] (morphine 1 mg/kg s.c. (lower dose)), the “rats performance in the beam walking test” value is reported as “not statistically different from the control value”. Also, the “number of foot slips” value with CCI rats [1] (morphine 3 mg/kg s.c. (higher dose), 30 minutes post dosing, vs 6±1 baseline, p<0.05) is recorded as 3±1; in the assay with CCI rats [1] (morphine 3 mg/kg s.c. (higher dose), 1 hour post dosing, vs 5±1 baseline, p<0.05), 2±1. For the same molecule, in the assay with CCI rats [1], the “efficacy” value is recorded as “show efficacy”. Further, the “rota rod performance of neuropathic rats” value with CCI rats [3] was “did not improve; also recorded: did not showed improvement”.
Turning to `CC(C)C[C@H](CN)CC(=O)O` [Pregabalin], the “QoL deficit of fibromyalgia patients” value in the assay with fibromyalgia patients is listed as “showed efficacy”.
Turning to `COc1cccc(C2(O)CCCCC2CN(C)C)c1` (stereo not shown) [Tramadol], the “cognitive dysfunction (memory/attention deficit) of neuropathic rats” value with CCI rats [4] is “reversed”. Further, the “discrimination index compared to vehicle-treated CCI rats” value with CCI rats [4] (P<0.01) is “significant increase”. For the same molecule, the “efficacy” value with CCI rats [1] is listed as “show efficacy”. For the same molecule, in the assay with CCI rats [1] (tramadol 30 mg/kg p.o.), the “performance of rats in the beam walking test” value is “not significantly different from CCI controls”. In addition, in the assay on CCI rats [1] (tramadol 100 mg/kg p.o. (higher dose), 1 hour post drug administration, vs 6±1 CCI vehicle-treated group, p<0.01), the “number of foot slips” value was 1±1. The “ability of CCI rats to cross the beam” value in the assay with CCI rats [1] (tramadol 30-100 mg/kg p.o.) is on record as “dose dependently improves”. Further, the “reversal” value in the assay with CCI rats [2] is “does not reverse”. Besides, the “pain-related anxiety-like behaviour of CCI rats (entries in centre)” value was “did not” in the assay on CCI rats [2] (tramadol 30 mg/kg PO, 30 minutes before the test (FIG. 5A)) and “did not” in the assay on CCI rats [2] (tramadol 100 mg/kg (higher dose, data not shown)). Further, the “rota rod performance of neuropathic rats” value in the assay with CCI rats [3] is listed as “did not improve; also recorded: did not showed improvement”.
With `NCC1(CC(=O)O)CCCCC1` [gabapentin], the “number of entries in the centre of the open field compared to CCI vehicle-treated group” value in the assay with CCI rats [2] (gabapentin 30 mg/kg p.o.) is listed as “increased”. Also, the “anxiety-like behaviour of injured rats” value in the assay on CCI rats [2] (gabapentin 100 mg/kg p.o.) is reported as “completely reversed”. Further, the “number of entries in the centre of the open field” value in the assay on CCI rats [2] (gabapentin 100 mg/kg p.o., 1 hour before the test, vs 14±2 naïve vehicle-treated group, NS) is 12±2. Besides, the “exploratory activity of neuropathic rats” value in the assay with CCI rats [2] (gabapentin 30-100 mg/kg p.o.) is “improved”. Moreover, the “reversal” value in the assay on CCI rats [2] is reported as “does”. Also, in assay [5], the QoL of patients entry is on record as “demonstrated an improvement”.
On to `Clc1cccc(N2CCNCC2)c1` [mCPP], for which the “exploratory activity (number of entries)” value with CD naïve rat (mCPP 1-3 mg/kg i.p.) is on record as “dose-dependent decrease”. Besides, the “number of entries in the centre of the arena” value with CD naïve rat (mCPP higher dose (3 mg/kg) i.p., vs 13±3 vehicle-treated) is 5±2. Besides, in the assay on CD naïve rat (mCPP, compared to 16% in the control group), the “rats that explored the centre less than 6 times” value was “Seventy-five”.
